From EP4796176A2, “METHOD OF ALLEVIATING JOINT PAIN” (OrthoTrophix, Inc., priority 2017, dated 2026) come the findings set out here.

Where no end group is shown, it is not given here.

The data set deals with subjects with bilateral patello-femoral knee osteoarthritis. The experiment in a line: Randomized double-blind placebo-controlled clinical study, safety and tolerability. It counts as in vivo, human. As for the experimental part:
A multicenter, randomized double-blind, placebo controlled study was designed to investigate the safety, tolerability, pharmacokinetics, and efficacy of TPX-100 administered in four weekly doses in subjects with bilateral patello-femoral knee osteoarthritis. The study was conducted under an open IND (investigational new drug application) at CDER (Center for Drug Evaluation and Research) of the U.S. FDA (The United States Food and Drug Administration) in compliance with GCP (Good Clinical Practice) and ICH (International Conference on Harmonization of Technical Requirements for Registration of Pharmaceuticals for Human Use) guidelines. Eighteen (18) orthopedic, rheumatologic and family practice centers in the U.S. participated in the study.
The study was divided into Part A and Part B. The Part A was to evaluate safety of intra-articular (I.A.) administration of TPX-100 at different dosing levels (20, 50, 100, or 200mg per injection in sequential cohorts) in the subjects with osteoarthritis of the knees and to select a dose adopted for the Part B. The Part B was to evaluate safety and efficacy of the selected dose of TPX-100.
Subjects in Part A enrolled in sequential cohorts were randomized to receive 20, 50, 100 or 200 mg of TPX-100 in one knee and identical placebo in the contralateral knee. Active and placebo assignments were randomized, with subject, site, and sponsor blinded as to treatment assignment. A Safety Review Committee (SRC) evaluated safety in each dosing cohort. The SRC assessed safety and dose-limiting toxicities, if evident, and determined whether the next higher dosing regimen might be enrolled. Part A were completed and analyzed with regard to safety prior to dose selection and initiation of Part B. […]
The 200mg dose was selected for Part B based on review and approval by the SRC. […] The combined final number of the subjects that were analyzed for the drug efficacy for 200mg dose of TPX-100 was 93.
On the first dosing day, the randomized subjects were assessed for their general health conditions by physical examinations and vital signs. […] Subjects were monitored for adverse events during the injections and for a few hours after the injections. Vital signs were also monitored after the injections.
Subjects returned to their respective study sites at 3, 6 and 12 months after the first dosing day for follow-up evaluations. In addition, the study sites monitored the subject's condition through telephone contact 9 months after the first dosing day. During the 3, 6, and 12 months post-treatment follow-up on-site visits, subjects were evaluated by physical examination, vital signs, serum chemistry, as well as KOOS. Adverse events and concomitant medications were also recorded. […]

Turning to TDLQERGDNDISPFSGDGQPFKD-NH2 [TPX-100], the dose-limiting toxicities result (Part A, 20, 50, 100 and 200 mg per injection, four weekly intra-articular injections) is recorded as “no dose-limiting toxicities”. Where the note is “throughout the study period”, the severe adverse events result is “no severe adverse events likely or possibly related to the drug treatment” and the treatment-related adverse events result is listed as “mild or moderate, transient”. For the setting “throughout the study period (12 months)”, the safety and tolerability result was “safe and well tolerated”.
